In the NIST ThermoML archive (doi:10.1016/j.jct.2019.03.023):
Several values for one entry are separate records, joined by “and”; a condition that tells them apart may be missing. Equal entries are not always repeated.

Assay: molar heat capacity at constant volume
Settings: Vacuum adiabatic calorimetry

CC(C)O [propan-2-ol]
Fluid (supercritical or subcritical phases)
Settings	molar heat capacity at constant volume
380.8 K, Mass density=697.69 kg/m3	187.08 J/K/mol
380.91 K, Mass density=697.69 kg/m3	187.8 J/K/mol
381.02 K, Mass density=697.69 kg/m3	186.29 J/K/mol
381.13 K, Mass density=697.69 kg/m3	184.61 J/K/mol
381.24 K, Mass density=697.69 kg/m3	185.39 J/K/mol
381.35 K, Mass density=697.69 kg/m3	184.49 J/K/mol
381.46 K, Mass density=697.69 kg/m3	184.01 J/K/mol
381.57 K, Mass density=697.69 kg/m3	184.67 J/K/mol
381.69 K, Mass density=697.69 kg/m3	184.97 J/K/mol
391.32 K, Mass density=329.2 kg/m3	243.38 J/K/mol
391.53 K, Mass density=329.2 kg/m3	248.85 J/K/mol
391.54 K, Mass density=329.2 kg/m3	243.44 J/K/mol
391.65 K, Mass density=329.2 kg/m3	246.93 J/K/mol
391.76 K, Mass density=329.2 kg/m3	235.69 J/K/mol
391.87 K, Mass density=329.2 kg/m3	241.16 J/K/mol
391.98 K, Mass density=329.2 kg/m3	242.54 J/K/mol
392.09 K, Mass density=329.2 kg/m3	244.11 J/K/mol
392.2 K, Mass density=329.2 kg/m3	243.2 J/K/mol
399.51 K, Mass density=343.1 kg/m3	235.93 J/K/mol
399.72 K, Mass density=343.1 kg/m3	235.93 J/K/mol
399.83 K, Mass density=343.1 kg/m3	239.24 J/K/mol
399.94 K, Mass density=343.1 kg/m3	242.54 J/K/mol
400.04 K, Mass density=343.1 kg/m3	236.05 J/K/mol
400.15 K, Mass density=343.1 kg/m3	239.36 J/K/mol
400.25 K, Mass density=343.1 kg/m3	239.42 J/K/mol
400.36 K, Mass density=343.1 kg/m3	239.42 J/K/mol
400.46 K, Mass density=343.1 kg/m3	236.23 J/K/mol
400.57 K, Mass density=343.1 kg/m3	239.54 J/K/mol
416.55 K, Mass density=329.2 kg/m3	258.83 J/K/mol
416.65 K, Mass density=329.2 kg/m3	260.09 J/K/mol
416.76 K, Mass density=329.2 kg/m3	252.52 J/K/mol
416.86 K, Mass density=329.2 kg/m3	257.99 J/K/mol
416.97 K, Mass density=329.2 kg/m3	255.76 J/K/mol
417.08 K, Mass density=329.2 kg/m3	261.47 J/K/mol
417.18 K, Mass density=329.2 kg/m3	252.94 J/K/mol
417.29 K, Mass density=329.2 kg/m3	253.84 J/K/mol
417.39 K, Mass density=329.2 kg/m3	259.73 J/K/mol
417.5 K, Mass density=329.2 kg/m3	261.17 J/K/mol
442.12 K, Mass density=329.2 kg/m3	262.92 J/K/mol
442.23 K, Mass density=329.2 kg/m3	265.86 J/K/mol
442.33 K, Mass density=329.2 kg/m3	272.53 J/K/mol
442.43 K, Mass density=329.2 kg/m3	265.68 J/K/mol
442.54 K, Mass density=329.2 kg/m3	266.76 J/K/mol
442.64 K, Mass density=329.2 kg/m3	267.6 J/K/mol
442.74 K, Mass density=329.2 kg/m3	270.13 J/K/mol
442.85 K, Mass density=329.2 kg/m3	265.86 J/K/mol
447.55 K, Mass density=581.06 kg/m3	250.9 J/K/mol
447.75 K, Mass density=581.06 kg/m3	250.96 J/K/mol
447.85 K, Mass density=581.06 kg/m3	250.96 J/K/mol
447.95 K, Mass density=581.06 kg/m3	253.06 J/K/mol
448.05 K, Mass density=581.06 kg/m3	255.1 J/K/mol
448.15 K, Mass density=581.06 kg/m3	251.08 J/K/mol
448.25 K, Mass density=581.06 kg/m3	251.08 J/K/mol
448.35 K, Mass density=581.06 kg/m3	253.18 J/K/mol
448.54 K, Mass density=581.06 kg/m3	253.06 J/K/mol
448.64 K, Mass density=581.06 kg/m3	255.16 J/K/mol
448.74 K, Mass density=581.06 kg/m3	253.12 J/K/mol
448.84 K, Mass density=581.06 kg/m3	251.14 J/K/mol
448.94 K, Mass density=581.06 kg/m3	253.18 J/K/mol
449.04 K, Mass density=581.06 kg/m3	253.24 J/K/mol
449.14 K, Mass density=581.06 kg/m3	255.28 J/K/mol
449.24 K, Mass density=581.06 kg/m3	253.3 J/K/mol
449.34 K, Mass density=581.06 kg/m3	253.3 J/K/mol
449.44 K, Mass density=581.06 kg/m3	253.3 J/K/mol
449.63 K, Mass density=581.06 kg/m3	251.56 J/K/mol
449.73 K, Mass density=581.06 kg/m3	253.6 J/K/mol
449.83 K, Mass density=581.06 kg/m3	255.7 J/K/mol
449.93 K, Mass density=581.06 kg/m3	255.7 J/K/mol
450.03 K, Mass density=581.06 kg/m3	251.62 J/K/mol
450.13 K, Mass density=581.06 kg/m3	249.63 J/K/mol
450.23 K, Mass density=581.06 kg/m3	255.82 J/K/mol
450.33 K, Mass density=581.06 kg/m3	253.78 J/K/mol
450.43 K, Mass density=581.06 kg/m3	253.78 J/K/mol
450.52 K, Mass density=581.06 kg/m3	253.84 J/K/mol
450.62 K, Mass density=581.06 kg/m3	253.54 J/K/mol
450.72 K, Mass density=581.06 kg/m3	251.86 J/K/mol
450.92 K, Mass density=581.06 kg/m3	253.72 J/K/mol
451.06 K, Mass density=581.06 kg/m3	251.62 J/K/mol
451.16 K, Mass density=581.06 kg/m3	252.94 J/K/mol
451.26 K, Mass density=581.06 kg/m3	249.63 J/K/mol
451.36 K, Mass density=581.06 kg/m3	249.63 J/K/mol
451.46 K, Mass density=581.06 kg/m3	249.69 J/K/mol
451.56 K, Mass density=581.06 kg/m3	249.69 J/K/mol
451.66 K, Mass density=581.06 kg/m3	251.8 J/K/mol
451.75 K, Mass density=581.06 kg/m3	250.3 J/K/mol
451.81 K, Mass density=581.06 kg/m3	247.95 J/K/mol
451.83 K, Mass density=581.06 kg/m3	250 J/K/mol and 186.78 J/K/mol
451.86 K, Mass density=581.06 kg/m3	181.85 J/K/mol
451.91 K, Mass density=581.06 kg/m3	175.18 J/K/mol
451.95 K, Mass density=581.06 kg/m3	179.26 J/K/mol
452.01 K, Mass density=581.06 kg/m3	174.52 J/K/mol

Settings	molar heat capacity at constant volume [J/K/mol]
451.83 K, Liquid	186.78
